Reference: the supplement of paper PMC10307832

What was measured:
Assay in all cases: relative viability (nuclei count vs DMSO), 5 days (fraction); higher = more cells survive
[1] = compound: CC1=C(C(=NN1)C)CC2=C(C3=C(S2)N(C(=O)N(C3=O)C)CC(C)C)C(=O)N4C[C@@H](CO4)O + COc1cccc2cc(-c3nc([C@H]4CC[C@H](C(=O)O)CC4)n4ncnc(N)c34)[nH]c12 [OSI-027] (partner 0.5 µM)
Outline: (§1)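 Lung cancer cell lines were seeded in 1536-well plates and dosed by pin tool the next day, with either a single drug or a fixed anchor-drug dose combined with five library-drug doses (not always all listed) spaced in √10 steps. Five days later, one step fixed the cells and stained their nuclei (final 0.05% Triton X-100, 1% formaldehyde, 1 ug/ml Hoechst), and nuclei were counted on 4× images. Relative viability is the nuclei count in treated wells divided by the count in vehicle wells, and each value is the median of duplicate plates.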

[2] = compound: CC1=C(C(=NN1)C)CC2=C(C3=C(S2)N(C(=O)N(C3=O)C)CC(C)C)C(=O)N4C[C@@H](CO4)O + C[C@@H](Oc1cc(-c2cnn(C3CCNCC3)c2)cnc1N)c1c(Cl)ccc(F)c1Cl [Crizotinib] (partner 1 µM)
Outline: as §1

IDH-C35 + Phenformin = compound: Cc1ccccc1C(C(=O)NC1CCCCC1)N(C(=O)Cn1ccnc1C)c1cccc(F)c1 [IDH-C35] + N=C(N)NC(=N)NCCc1ccccc1 [Phenformin] (partner 250 µM)
Outline: as §1

IDH-C35 + Pemetrexed = compound: Cc1ccccc1C(C(=O)NC1CCCCC1)N(C(=O)Cn1ccnc1C)c1cccc(F)c1 [IDH-C35] + Nc1nc2[nH]cc(CCc3ccc(C(=O)N[C@@H](CCC(=O)O)C(=O)O)cc3)c2c(=O)[nH]1 [Pemetrexed] (partner 0.2 µM)
Outline: as §1

UMC-11
relative viability ([1]; first compound 0.0025 µM): 0.494
relative viability ([1]; first compound 0.007906 µM): 0.473
relative viability ([1]; first compound 0.025 µM): 0.468
relative viability ([1]; first compound 0.07906 µM): 0.549
relative viability ([1]; first compound 0.25 µM): 0.572
relative viability ([2]; first compound 0.0025 µM): 0.647
relative viability ([2]; first compound 0.007906 µM): 0.346
relative viability ([2]; first compound 0.025 µM): 0.441
relative viability ([2]; first compound 0.07906 µM): 0.628
relative viability ([2]; first compound 0.25 µM): 0.657
relative viability (IDH-C35 + Phenformin; first compound 0.08 µM): 0.317
relative viability (IDH-C35 + Phenformin; first compound 0.253 µM): 0.337
relative viability (IDH-C35 + Phenformin; first compound 0.8 µM): 0.33
relative viability (IDH-C35 + Phenformin; first compound 2.53 µM): 0.313
relative viability (IDH-C35 + Phenformin; first compound 8 µM): 0.291
relative viability (IDH-C35 + Pemetrexed; first compound 0.08 µM): 0.811
relative viability (IDH-C35 + Pemetrexed; first compound 0.253 µM): 0.915
relative viability (IDH-C35 + Pemetrexed; first compound 0.8 µM): 0.804
relative viability (IDH-C35 + Pemetrexed; first compound 2.53 µM): 0.853
relative viability (IDH-C35 + Pemetrexed; first compound 8 µM): 0.88
